target: TNFα trimer (Homo sapiens, UniProt P01375); experiment: TNFα FP Competitive Binding Assay; conditions: TNFα FP competitive binding assay; class symbols A/B/C; read-out: TNF IC50
Procedure: TNFα FP Competitive Binding Assay
• 1. Assay Buffer: Prepare 1× Assay Buffer (Water with 47 mM HEPES, 47 mM NaCl, 0.9 mM EDTA, 0.0071% Triton X-100) by adding 25 mL of 1 M HEPES, 5 mL of 5 M NaCl, 1 mL of 0.5 M EDTA, and 375 μL of a 10% Triton X-100 stock to a fresh 500 mL bottle of water. • 2. Assay Mixture: Prepare fresh Assay Mixture containing 20 nM TNFα trimer (60 nM protein) and 1 nM 2′,7′-difluoro-3′,6′-dihydroxy-N-(2-(2-(2-((4-(isoquinolin-8-yl)-3-(4-(isoquinolin-8-yl)phenethoxy)benzyl)oxy)ethoxy)ethoxy)ethyl)-3-oxo-3H-spiro[isobenzofuran-1,9′-xanthene]-5-carboxamide probe in 1× Assay Buffer.
Compound Plate Preparation
Manual 12-point 1:3 Dilution Plates: (384 well polypropylene plates)
Top concentration of compounds, 10 mM in DMSO, dispensed in rows A-O in columns 1 and 13. Compounds are serially diluted 1:3 with DMSO in columns 2-12 or 14-24 using a 16-channel Matrix pipettor. Plates stored at −20° C.
Discovery Preps 12-point 1:3 Dilution Plates: (384 well assay plates)
Top concentration, 5 mM in DMSO, of compounds placed in rows A-O in columns 1 and 13. Compounds are serially diluted 1:3 with DMSO in columns 2-12 or 14-24. Compound solutions are dispensed into replicate assay plates at 410 nL per well. Plates stored at 4° C.
TNFα FP Competitive Binding Assay Protocol
• 1. Compound plates are warmed to rt. • 2. Fresh Assay Mixture is prepared. • 3. Assay Mixture (20 μL) is dispensed each well of 384 assay plates using a Thermo Multidrop Combi or 16-channel Matrix pipettor. If Manual 12-point 1:3 Dilution Plates are to be tested, Assay Mix is dispensed into empty plates. Discovery Preps 12-point 1:3 Dilution Plates already contain 410 nL compound solution in DMSO. • 4. For Manual 12-point 1:3 Dilution Plates, 0.7 μL is manually transferred using a 16-channel Matrix pipettor to replicate assay plates containing 20 μL Assay Mixture for a final top compound concentration of 338 μM (3.4% DMSO). • 5. For Discovery Preps 12-point 1:3 Dilution Plates, 20 μL Assay Mixture added the 410 nL compound solution already in the plates yields a final top compound concentration of 100 μM (2.0% DMSO). • 6. Background subtraction controls are wells P1-P8 containing only Assay Buffer. The low % inhibition controls are wells P9-P16 containing only Assay Mix. The high % inhibition are wells P17-P24 containing only 1 nM 2′,7′-difluoro-3′,6′-dihydroxy-N-(2-(2-(2-((4-(isoquinolin-8-yl)-3-(4-(isoquinolin-8-yl)phenethoxy)benzyl)oxy)ethoxy)ethoxy)ethyl)-3-oxo-3H-spiro[isobenzofuran-1,9′-xanthene]-5-carboxamide probe in 1× Assay Buffer. • 7. Plates are incubated at […] for 18-24 h in 37° C. incubator (CO2 is off). • 8. Prior to reading the assay, the plates are placed in a dark cabinet to equilibrate at rt for one hour. • 9. Background-subtracted fluorescence polarization (mP) is measured using a PerkinElmer Envision plate reader. • 10. Raw data is entered into Assay Explorer and dose-response curves are generated using a variable slope curve.

TNFα trimer, sequence (P01375 77-233 limits assumed): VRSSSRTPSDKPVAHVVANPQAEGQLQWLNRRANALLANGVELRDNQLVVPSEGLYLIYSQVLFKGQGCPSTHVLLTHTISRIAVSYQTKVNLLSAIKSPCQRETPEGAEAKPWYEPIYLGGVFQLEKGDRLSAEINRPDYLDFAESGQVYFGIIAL

Structure (SMILES)	IC50 [nM]
O=c1cc(-c2ccc3nc4n(c3n2)[C@@H](c2ccccc2)CC4)ccn1CC1CCC(F)(F)CC1 [AW.1]	1000 to 10000
OC1CCN(c2ncc(-c3ccc4nc5n(c4n3)C3(CCOc4ccccc43)COC5)cn2)C1 (centres unmarked) [BB.5]	< 1000
CCOc1ncc(-c2ccc3nc4n(c3n2)C2(CCOc3ccccc32)COC4)cn1 (centres unmarked) [BA.2]	< 1000
O=C1NCN2CCN(c3ncc(-c4ccc5nc6n(c5n4)[C@@H](c4ccccc4)COC6)cn3)CC12 (some centres unmarked) [AB.5]	< 1000
COCCn1ccc(-c2ccc3nc4n(c3n2)[C@@H](c2ccccc2)CC4)cc1=O [AW.2]	1000 to 10000
COc1ccccc1C1CCCc2nc3ccc(-c4cnc(N5CCC(O)CC5)nc4)cn3c21 (centres unmarked) [AJ.1]	< 1000
O=C1NCC2CN(c3ncc(-c4ccc5nc6n(c5c4)C(c4ccccc4F)COC6)cn3)CCN12 (centres unmarked) [AH.1]	< 1000

Continued, values first:

IC50 [nM]	Structure (SMILES)
1000 to 10000	Cc1nccn1-c1cnc(-c2ccc3nc4n(c3c2)C(c2ccccc2)COC4)cn1 (centres unmarked) [T.8]
1000 to 10000	FC(F)(F)COc1ccc(-c2ccc3nc4n(c3c2)C(c2ccccc2)COC4)cn1 (centres unmarked) [T.4]
1000 to 10000	COc1ccccc1C1CCCCc2nc3ccc(-c4cnc(NCC(=O)O)nc4)cn3c21 (centres unmarked) [S.3]
1000 to 10000	Cc1cc(-c2ccc3nc4n(c3c2)C(c2ccccc2)COC4)cnc1OC(C)C (centres unmarked) [T.30]
1000 to 10000	COc1ncc(-c2ccc3nc4n(c3c2)C(c2ccccc2)COC4)cn1 (centres unmarked) [T.22]
1000 to 10000	c1ccc(C2COCc3nc4ccc(-c5cnc(-n6ccnc6)cn5)cc4n32)cc1 (centres unmarked) [T.9]
1000 to 10000	c1ccc(C2COCc3nc4ccc(-c5cnc(-n6cccn6)cn5)cc4n32)cc1 (centres unmarked) [T.21]
1000 to 10000	c1ccc(C2COCc3nc4ccc(-c5cnc(NC6CC6)nc5)cc4n32)cc1 (centres unmarked) [T.24]
< 1000	c1ccc([C@H]2CCc3nc4ccc(-c5cnc(N6CCOCC6)nc5)nc4n32)cc1 [Y.10]
< 1000	OC1CC2(CCN(c3ncc(-c4ccc5nc6n(c5c4)C(c4cccc(F)c4)COC6)cn3)CC2)C1 (centres unmarked) [X.2]
< 1000	OC1CCN(c2ncc(-c3ccc4nc5n(c4c3)C(c3cccc(F)c3)COC5)cn2)CC1(F)F (centres unmarked) [X.1]
10000 to 100000	c1ccc(C2COCc3nc4ccc(-c5ccc(NCCN6CCOCC6)nc5)cc4n32)cc1 (centres unmarked) [T.28]
1000 to 10000	Cc1cc(-c2ccc3nc4n(c3c2)C(c2ccccc2)COC4)cnc1N1CCOCC1 (centres unmarked) [T.12]
10000 to 100000	c1ccc(C2COCc3nc4ccc(-c5cnc6nccnc6c5)cc4n32)cc1 (centres unmarked) [T.19]
1000 to 10000	FC(F)(F)c1ccc(-c2ccc3nc4n(c3c2)C(c2ccccc2)COC4)cn1 (centres unmarked) [T.33]

same assay, conditions: Table BN; read-out: TNF IC50

IC50 [nM]	Structure (SMILES)
1000 to 10000	COC(=O)CC1CC=C(c2ccc3nc4n(c3n2)[C@@H](c2ccccc2)CC4)CC1 (some centres unmarked) [BN.1]

same assay, conditions: fluorescence polarization competition; 20 nM TNFα trimer, 1 nM OregonGreen488 probe; read-out: TNF IC50 (TNFα FP binding assay IC50)

Structure (SMILES)	IC50 [nM]
CC1(c2ccccc2)CCc2nc3ccc(-c4cnc(N5CCC(O)CC5)nc4)nc3n21 (centres unmarked) [Example 77, 1-(5-(8-Methyl-8-phenyl-7,8-dihydro-6H-pyrrolo[2′,1′:2,3]imidazo[4,5-b]pyridin-2-yl)pyrimidin-2-yl)piperidin-4-ol]	< 1000
O=C1NC[C@H]2CN(c3ncc(-c4ccc5nc6n(c5c4)[C@@H](c4ccccc4)CC6)cn3)CCN12 [Example 25, (S)-7-(5-((R)-1-Phenyl-2,3-dihydro-1H-benzo[d]pyrrolo[1,2-a]imidazol-7-yl)pyrimidin-2-yl)hexahydroimidazo[1,5-a]pyrazin-3(2H)-one]	< 1000
CCS(=O)(=O)c1ccc(-c2ccc3nc4n(c3c2)C(c2ccccc2)CC4)cc1 (centres unmarked) [A.2]	< 1000
c1ccc(C2CCc3nc4ccc(-c5cccnc5)cc4n32)cc1 (centres unmarked) [A.22]	1000 to 10000
CS(=O)(=O)NCc1ccc(-c2ccc3nc4n(c3c2)C(c2ccccc2)CC4)cc1 (centres unmarked) [A.4]	< 1000
O=C(O)CCC1CCN(c2ncc(-c3ccc4nc5n(c4c3)[C@@H](c3ccccc3)COC5)cn2)CC1 [G.10]	1000 to 10000
CC(C)(O)c1ncc(-c2ccc3nc4n(c3c2)[C@@H](c2ccccc2OC(F)F)COC4)cn1 [Example 13, (S)-2-(5-(4-(2-(Difluoromethoxy)phenyl)-3,4-dihydro-1H-benzo[4,5]imidazo[2,1-c][1,4]oxazin-7-yl)pyrimidin-2-yl)propan-2-ol]	< 1000
O=S(=O)(c1ccc(-c2ccc3nc4n(c3c2)C(c2ccccc2)CC4)cc1)N1CCOCC1 (centres unmarked) [A.3]	< 1000
CS(=O)(=O)NC1CCN(c2ncc(-c3ccc4nc5n(c4c3)[C@@H](c3ccccc3)COC5)cn2)CC1 [G.19]	1000 to 10000
c1ccc([C@H]2COCc3nc4ccc(-c5cnc(N6[C@H]7CCC[C@@H]6CNCC7)nc5)cc4n32)cc1 [Example 37]	< 1000
c1ccc2c(c1)OCCC21COCc2nc3ccc(-c4cnc(N5CCNCC5)nc4)nc3n21 (centres unmarked) [Example 59, 2′-(2-(Piperazin-1-yl)pyrimidin-5-yl)-6′H,8′H-spiro[chromane-4,9′-pyrido[3′,2′:4,5]imidazo[2,1-c][1,4]oxazine]]	1000 to 10000
c1ccc(C2CCOc3nc4ccc(-c5cnc(N6CCOCC6)nc5)cn4c32)cc1 (centres unmarked) [D.4]	1000 to 10000
CNS(=O)(=O)c1ccc(-c2ccc3nc4n(c3c2)C(c2ccccc2)CC4)cc1 (centres unmarked) [A.1]	< 1000
OC1CCN(c2ncc(-c3ccc4nc5n(c4n3)[C@@H](c3ccccc3)[C@@H]3C[C@H]5O3)cn2)CC1 [Example 71, 1-(5-((6R,8S,9S)-9-Phenyl-6,7,8,9-tetrahydro-6,8-epoxyimidazo[1,2-a:5,4-b′]dipyridin-2-yl)pyrimidin-2-yl)piperidin-4-ol]	10000 to 100000
CC(=O)N1CCN(c2ncc(-c3ccc4nc5n(c4n3)[C@@H](c3ccccc3)CC5)cn2)C[C@@H]1C [Example 42, 1-((S)-2-Methyl-4-(5-((R)-8-phenyl-7,8-dihydro-6H-pyrrolo[2′,1′:2,3]imidazo[4,5-b]pyridin-2-yl)pyrimidin-2-yl)piperazin-1-yl)ethanone]	< 1000
c1ccc([C@H]2COCc3nc4ccc(-c5cnc(N6CCCOCC6)nc5)cc4n32)cc1 [G.32]	< 1000
COc1ccccc1C1=CCCc2nc3ccc(-c4cnc(N5CCOCC5)nc4)cn3c21 [Example 14, 4-(5-(9-(2-Methoxyphenyl)-6,7-dihydrobenzo[4,5]imidazo[1,2-a]pyridin-2-yl)pyrimidin-2-yl)morpholine]	10000 to 100000
Nc1ccc(-c2ccc3nc4n(c3c2)C(c2ccccc2)CC4)cn1 (centres unmarked) [A.27]	10000 to 100000
CS(=O)(=O)C1(CO)CCN(c2ncc(-c3ccc4nc5n(c4c3)[C@@H](c3ccccc3)COC5)cn2)CC1 [G.33]	1000 to 10000
OC[C@H]1CCCN1c1ncc(-c2ccc3nc4n(c3n2)[C@@H](c2ccccc2)CC4)cn1 [Example 40, ((R)-1-(5-((R)-8-Phenyl-7,8-dihydro-6H-pyrrolo[2′,1′:2,3]imidazo[4,5-b]pyridin-2-yl)pyrimidin-2-yl)pyrrolidin-2-yl)methanol]	1000 to 10000
O[C@H]1CC[C@H](Oc2cc(-c3ccc4nc5n(c4n3)[C@@]3(COC5)COc4ccccc43)ccn2)CC1 [Example 74, (1S,4r)-4-((4-((S)-6′,8′-Dihydro-2H-spiro[benzofuran-3,9′-pyrido[3′,2′:4,5]imidazo[2,1-c][1,4]oxazin]-2′-yl)pyridin-2-yl)oxy)cyclohexanol]	< 1000

Now from value to compound:

IC50 [nM]	Structure (SMILES)
1000 to 10000	OC1(c2cccc(Cl)c2)CCCCc2nc3ccc(-c4cnc(N5CCOCC5)nc4)cn3c21 (centres unmarked) [J.2]
< 1000	OC1CCN(c2ncc(-c3ccc4nc5n(c4n3)C(c3cccc(F)c3)CC5)cn2)CC1 (centres unmarked) [M.4, 1-(5-(8-(3-fluorophenyl)-7,8-dihydro-6H-pyrrolo[2′,1′:2,3]imidazo[4,5-b]pyridin-2-yl)pyrimidin-2-yl)piperidin-4-ol]
< 1000	O=C1CN(c2ncc(-c3ccc4nc5n(c4n3)C(c3ccccc3)CCC5)cn2)CCN1 (centres unmarked) [O.3]
1000 to 10000	OC1(c2ccc(F)cc2)CCCCc2nc3ccc(-c4cnc(N5CCOCC5)nc4)cn3c21 (centres unmarked) [J.4]
< 1000	OC1CC2(CCN(c3ncc(-c4ccc5nc6n(c5c4)[C@@H](c4ccccc4)COC6)cn3)C2)C1 (some centres unmarked) [G.34]
< 1000	Clc1cccc(C2CCCc3nc4ccc(-c5cnc(N6CCOCC6)nc5)cn4c32)c1 (centres unmarked) [K.1]

Reference: US20180179198A1, “TRICYCLIC MODULATORS OF TNF SIGNALING” (AbbVie Inc., priority 2015, published 2018)
